Changes are numbered by the printed parent chain. Values joined by “and” are separate entries in the source; they are usually repeats but may differ in a detail not shown here. Identical values can stand only once. Like-named read-outs stand apart in the source and are kept apart here.
Assays:
PotF_Abox-A182D = biological target: T1, PotF_Abox-A182D (Escherichia coli, UniProt P31133, A182D/F276W); test: ITC, PotF_Abox-A182D (F276W, A182D); assay type: binding; details: for n: ITC binding stoichiometry; for n / Kd / ΔG / ΔH / −TΔS: 293 K, PotF_Abox-A182D; for Kd / ΔG / ΔH / −TΔS: ITC; for Kd: 50 mM Tris pH 8, 300 mM NaCl, biological triplicates
T1 construct: without the N-terminal signal peptide; made in house; host or cells: E. coli BL21 (DE3)
T1 sequence (P31133 27-370 A182D/F276W): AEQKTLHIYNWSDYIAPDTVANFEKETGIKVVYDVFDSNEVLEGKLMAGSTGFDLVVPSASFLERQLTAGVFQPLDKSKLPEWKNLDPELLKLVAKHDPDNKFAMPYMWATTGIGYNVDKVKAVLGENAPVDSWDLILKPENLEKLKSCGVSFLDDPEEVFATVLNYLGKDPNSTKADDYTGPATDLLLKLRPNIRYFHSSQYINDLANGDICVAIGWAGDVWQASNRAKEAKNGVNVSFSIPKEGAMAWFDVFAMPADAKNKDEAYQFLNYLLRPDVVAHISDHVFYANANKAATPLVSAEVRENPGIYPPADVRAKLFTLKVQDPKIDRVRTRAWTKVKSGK
Description: (§1) Ligands were always freshly prepared in the exact same buffer as was used for the size exclusion run. Samples were degassed, and temperature was equilibrated using a degassing station (TA Instruments). About 400 μl protein sample of different concentrations (Table S5) depending on affinity was transferred into the sample cell of a nanoITC (TA Instruments), and 50 μl of about tenfold concentrated ligand solution was loaded into the injection needle. Multiple injection measurements were carried out at 293 K, 300 rpm stirring rate, and 250 s spacings between each 2 μl injection. The heat quantity past injection was determined by integration of the measured peaks. Every protein–ligand combination was measured as biological triplicate. Subtraction of heat of dilution measurements, peak integration, and one site binding fits were done with NanoAnalyze (TA Instruments). Reported errors are the errors between fits of the measured triplicates.

PotF_Abox = biological target: T2, PotF_Abox (Escherichia coli, UniProt P31133, F276W); test: ITC, PotF_Abox (F276W); assay type: binding; details: for n: ITC binding stoichiometry; for n / Kd / ΔG / ΔH / −TΔS: 293 K, PotF_Abox; for Kd: 50 mM Tris pH 8, 300 mM NaCl, biological triplicates
T2 construct: without the N-terminal signal peptide; made in house; host or cells: E. coli BL21 (DE3)
T2 sequence (P31133 27-370 F276W): T1 sequence (P31133 27-370 A182D/F276W) with D156A
Description: as §1

PotF = biological target: PotF; design: method as in PMID 33406388; details: PotF wildtype, cited from earlier work
PotF_Abox_Prox = biological target: T3, PotF_Abox_Prox (Escherichia coli, UniProt P31133, D247S/D39E/F276W/S38T); test: ITC, PotF_Abox_Prox (S38T, D39E, D247S, F276W); assay type: binding; details: 293 K, 50 mM Tris pH 8, 300 mM NaCl, biological triplicates
T3 construct: without the N-terminal signal peptide; made in house; host or cells: E. coli BL21 (DE3)
T3 sequence (P31133 27-370 S38T/D39E/D247S/F276W): T1 sequence (P31133 27-370 A182D/F276W) with S12T, D13E, D156A, D221S
Description: as §1

PotF_Abox-S87Y = biological target: T4, PotF_Abox-S87Y (Escherichia coli, UniProt P31133, F276W/S87Y); test: ITC, PotF_Abox-S87Y (F276W, S87Y); assay type: binding; details: 293 K; for n: ITC binding stoichiometry; for ΔG / ΔH / −TΔS / Kd: ITC; for Kd: 50 mM Tris pH 8, 300 mM NaCl, biological triplicates
T4 construct: without the N-terminal signal peptide; made in house; host or cells: E. coli BL21 (DE3)
T4 sequence (P31133 27-370 S87Y/F276W): T1 sequence (P31133 27-370 A182D/F276W) with S61Y, D156A
Description: as §1

PotF/D–E39D–F88L–S247D = biological target: T5, PotF/D–E39D–F88L–S247D (Escherichia coli, UniProt P31133, A182D/F276W/F88L/L348Q/S38T/S87Y); test: ITC, PotF/D–E39D–F88L–S247D; assay type: binding; details: 293 K; for n: ITC binding stoichiometry; for ΔG / ΔH / −TΔS / Kd: ITC; for Kd: 50 mM Tris pH 8, 300 mM NaCl, biological triplicates
T5 construct: without the N-terminal signal peptide; made in house; host or cells: E. coli BL21 (DE3)
T5 sequence (P31133 27-370 S38T/S87Y/F88L/A182D/F276W/L348Q): T1 sequence (P31133 27-370 A182D/F276W) with S12T, S61Y, F62L, L322Q
Description: as §1

[1] = ITC, PotF_Abox compared with wildtype PotF

Compound	n (PotF_Abox-A182D)	Kd (PotF_Abox-A182D)	ΔG (PotF_Abox-A182D)	ΔH (PotF_Abox-A182D)	−TΔS (PotF_Abox-A182D)	n (PotF_Abox)	Kd (PotF_Abox; ITC)	ΔG (PotF_Abox; ITC)	ΔH (PotF_Abox; ITC)	−TΔS (PotF_Abox; ITC)	Kd (PotF; ITC)	ΔG (PotF; ITC)	ΔH (PotF; ITC)	−TΔS (PotF; ITC)	KD (PotF_Abox_Prox)	n (PotF_Abox-S87Y)	ΔG (PotF_Abox-S87Y)	ΔH (PotF_Abox-S87Y)	−TΔS (PotF_Abox-S87Y)	Kd (PotF_Abox-S87Y)	other results
NCCCCN [PUT, putrescine]	0.91 ± 0.01	~83 µM and 83.2 µM	-5.45 ± 0.02 kcal/mol	-9.79 ± 0.09 kcal/mol	4.33 ± 0.08 kcal/mol	0.90 ± 0.03	~0.21 µM and 0.21 µM	-8.97 ± 0.10 kcal/mol	-22.25 ± 0.77 kcal/mol	13.28 ± 0.75 kcal/mol	0.07 ± 0.04 µM	-9.74 ± 0.40 kcal/mol	-23.02 ± 0.12 kcal/mol	13.28 ± 0.52 kcal/mol	no binding	0.92 ± 0.03	-6.47 ± 0.02 kcal/mol	-9.97 ± 0.20 kcal/mol	3.50 ± 0.18 kcal/mol	14.9 ± 0.54 µM	decrease of PUT affinity (PotF_Abox-A182D; PotF_Abox-A182D compared with wildtype PotF): around 1200 fold; ΔΔH (PotF_Abox; [1]): +0.77 kcal/mol; Kd (PotF): ~0.068 µM; n (PotF/D–E39D–F88L–S247D): 0.90 ± 0.01; ΔG (PotF/D–E39D–F88L–S247D): -4.97 ± 0.13 kcal/mol; ΔH (PotF/D–E39D–F88L–S247D): -5.54 ± 0.73 kcal/mol; −TΔS (PotF/D–E39D–F88L–S247D): 0.57 ± 0.86 kcal/mol; Kd (PotF/D–E39D–F88L–S247D): 203 ± 43.1 µM
NCCCCNCCCN [SPD, spermidine]	0.91 ± 0.02	~3.1 µM and 3.13 µM	-7.39 ± 0.11 kcal/mol	-4.37 ± 0.20 kcal/mol	-3.02 ± 0.15 kcal/mol	0.96 ± 0.06	~11 µM and 11.1 µM	-6.65 ± 0.04 kcal/mol	-6.25 ± 0.16 kcal/mol	-0.40 ± 0.21 kcal/mol	29.7 ± 1.15 µM	-6.07 ± 0.02 kcal/mol	-3.65 ± 0.06 kcal/mol	-2.42 ± 0.04 kcal/mol	very low	0.97 ± 0.02	-6.30 ± 0.02 kcal/mol	-5.66 ± 0.12 kcal/mol	-0.65 ± 0.12 kcal/mol	20 ± 0.7 µM	Δ(−TΔS) (PotF_Abox; [1]): +2.02 kcal/mol; n (PotF/D–E39D–F88L–S247D): 0.93 ± 0.01; ΔG (PotF/D–E39D–F88L–S247D): -7.35 ± 0.09 kcal/mol; ΔH (PotF/D–E39D–F88L–S247D): -4.19 ± 0.06 kcal/mol; −TΔS (PotF/D–E39D–F88L–S247D): -3.17 ± 0.10 kcal/mol; Kd (PotF/D–E39D–F88L–S247D): 3.33 ± 0.53 µM

— PMC8666671, “Fine-tuning spermidine binding modes in the putrescine binding protein PotF” (The Journal of Biological Chemistry, 2021)
